# According to ChEMBL document CHEMBL5236553, “Advances in the development of HIV integrase strand transfer inhibitors” (Eur J Med Chem, 2021):
# Assays:
# [1] = biological target: Human immunodeficiency virus type 1 integrase (Human immunodeficiency virus 1, UniProt Q7ZJM1, H51Y/R263K); test: Inhibition of HIV-1 integrase DTG-resistant H51Y/R263K double mutant
# [2] = biological target: Human immunodeficiency virus type 1 integrase (Human immunodeficiency virus 1, UniProt Q7ZJM1, R263K); test: Inhibition of HIV-1 integrase DTG-resistant R263K mutant
# Integrase [3] = biological target: T1, Integrase (Human immunodeficiency virus 1, UniProt T1QYY3, G140S/Q148H); test: Inhibition of HIV-1 integrase G140S/Q148H double mutant
# [4] = biological target: Human immunodeficiency virus type 1 integrase (Human immunodeficiency virus 1, UniProt Q7ZJM1, G118R); test: Inhibition of HIV-1 integrase DTG-resistant G118R mutant
# Integrase [5] = biological target: T1, Integrase; test: Inhibition of HIV-1 integrase RAL-resistant G140S/Q148H double mutant
# [6] = biological target: Human immunodeficiency virus type 1 integrase (Human immunodeficiency virus 1, UniProt Q7ZJM1); test: Inhibition of HIV-1 integrase strand transfer activity
# [7] = test system: Human immunodeficiency virus; test: Antiviral activity against HIV-1 harboring integrase G140S/Q148H double mutant; assay type: functional, organism-based; conditions: Human immunodeficiency virus 1
# [8] = test system: Human immunodeficiency virus; test: Antiviral activity against HIV-1 harboring integrase N155H mutant; assay type: functional, organism-based; conditions: Human immunodeficiency virus 1
# [9] = test system: Human immunodeficiency virus; test: Antiviral activity against HIV-1 harboring integrase Q148R mutant; assay type: functional, organism-based; conditions: Human immunodeficiency virus 1
# [10] = test system: Human immunodeficiency virus; test: Antiviral activity against wild type HIV-1 integrase; assay type: functional, organism-based; conditions: Human immunodeficiency virus 1
# [11] = test system: Human immunodeficiency virus; test: Binding affinity to HIV-1 wildtype integrase DNA complex assessed as dissociative half life
# [12] = test system: Human immunodeficiency virus; test: Antiviral activity against HIV-1 harboring integrase M50I mutant; assay type: functional, organism-based; conditions: Human immunodeficiency virus 1
# [13] = test system: Human immunodeficiency virus; test: Antiviral activity against HIV-1 harboring integrase E138K/Q148K mutant; assay type: functional, organism-based; conditions: Human immunodeficiency virus 1
# [14] = test system: Human immunodeficiency virus; test: Antiviral activity against HIV-1 harboring integrase G140S/Q148H mutant; assay type: functional, organism-based; conditions: Human immunodeficiency virus 1
# [15] = test system: Human immunodeficiency virus; test: Antiviral activity against HIV-1 harboring integrase L74M mutant; assay type: functional, organism-based; conditions: Human immunodeficiency virus 1
# [16] = test system: Human immunodeficiency virus; test: Antiviral activity against HIV-1 harboring integrase […]/N155H mutant; assay type: functional, organism-based; conditions: Human immunodeficiency virus 1
# [17] = test system: Human immunodeficiency virus; test: Fold change in antiviral EC50 against HIV-1 harboring integrase Q148K mutant; conditions: Human immunodeficiency virus 1
# [18] = test system: Human immunodeficiency virus; test: Antiviral activity against HIV-1 harboring integrase E92Q mutant; assay type: functional
# [19] = Clearance in rat plasma; assay type: ADME, cell-free
# [20] = test system: Human immunodeficiency virus; test: Fold change in antiviral EC50 against HIV-1 harboring integrase Y143R mutant; conditions: Human immunodeficiency virus 1
# [21] = Clearance in dog plasma; assay type: ADME, cell-free, Canis lupus familiaris
# [22] = test system: Integrase (Human immunodeficiency virus 1); test: Inhibition of HIV-1 integrase-catalyzed strand transfer
# [23] = test system: Human immunodeficiency virus; test: Antiviral activity against HIV-1 assessed as inhibition of HIV infection in human T cells by cell based assay; assay type: functional, organism-based; conditions: Human immunodeficiency virus 1, T-cell
compound,measurement,setting,value
O=C(NCc1c(F)cc(F)cc1F)c1cn2c(c(O)c1=O)C(=O)N1[C@H]3CC[C@H](C3)O[C@@H]1C2 [BICTEGRAVIR],EC50,[1],≤ 5 nM
same,EC50,[2],≤ 5 nM
same,EC50,Integrase [3],3.1 nM
same,EC50,[4],≤ 5 nM
same,EC50,Integrase [5],≤ 5 nM
O=C(NCc1ccc(F)cc1F)c1cc2cccnc2n(O)c1=O,IC50,[6],410 nM
CC1(C)OCCn2c1nc(-c1ncc(Cc3ccc(F)cc3)[nH]1)c(O)c2=O,EC50,[7],320 nM
same,EC50,[8],2 nM
same,EC50,[9],33 nM
same,EC50,[10],6 nM
C[C@@H]1CCO[C@H]2Cn3cc(C(=O)NCc4ccc(F)cc4F)c(=O)c(O)c3C(=O)N12 [DOLUTEGRAVIR],T1/2,[11],71 h
same,EC50,[12],2.1 nM
same,EC50,[13],25 nM
same,EC50,[14],3.9 nM
same,EC50,[15],2.2 nM
same,EC50,[16],4 nM
CC(C)n1c(C(=O)N(C)C)c2c(c(O)c1=O)C(=O)N(Cc1ccc(F)c(Cl)c1)CC2,fold change,[17],1
same,fold change (FC),[18],1
same,clearance,[19],2.3 mL/min/kg
same,fold change,[20],2
same,clearance,[21],2.2 mL/min/kg
Cc1nnc(C(=O)NC(C)(C)c2nc(C(=O)NCc3ccc(F)cc3)c(O)c(=O)n2C)o1,fold change (FC),[18],3
same,IC50,[22],10 nM
O=C(NCc1ccc(F)c(Cl)c1)c1cc2cccnc2n(O)c1=O,IC50,[6],140 nM
COc1cc2c(cc1Cc1cccc(Cl)c1F)c(=O)c(C(=O)O)cn2[C@H](CO)C(C)C,EC50,[23],0.9 nM
CC1(C)OCCn2c1nc(C(=O)NCc1ccc(F)cc1)c(O)c2=O,EC50,[7],> 8000 nM
same,EC50,[8],140 nM
same,EC50,[9],300 nM
same,EC50,[10],3 nM
O=C(NCc1ccc(F)c(F)c1)c1c(O)c2cccnc2n(O)c1=O,IC50,[6],400 nM
CN1C(=O)c2c3c(c(O)c(=O)n2[C@]12CC[C@H]1C[C@@]12CO)C(=O)N(Cc1ccc(F)c(Cl)c1)CC3,fold change,[17],1
same,fold change (FC),[18],1
same,fold change,[20],1
C[C@H](O)N1C(=O)c2c3c(c(O)c(=O)n2[C@]12CC[C@H]1C[C@H]12)C(=O)N(Cc1ccc(F)c(Cl)c1)CC3,fold change,[17],1
same,EC50,[8],1.5 nM
same,EC50,[9],1.5 nM
same,fold change (FC),[18],1.5
same,fold change,[20],1
O=C(NCc1ccc(F)c(Cl)c1)c1c(O)c2cccnc2n(O)c1=O,IC50,[6],270 nM
O=C(NCc1ccc(F)c(F)c1)c1cc2cccnc2n(O)c1=O,IC50,[6],170 nM
O=C(NCc1ccc(F)cc1F)c1cc2cccc(O)c2n(O)c1=O,IC50,[6],1800 nM
Nc1c(C(=O)NCc2ccc(F)cc2F)c(=O)n(O)c2ncc(CCCCCCO)cc12,EC50,[12],1.3 nM
same,EC50,[13],16 nM
same,EC50,[14],0.9 nM
same,EC50,[15],1.6 nM
same,EC50,[16],1.1 nM
O=C(NCc1ccc(F)cc1F)c1c(O)c2cccnc2n(O)c1=O,IC50,[6],550 nM
